Measured values from patent US20190365685A1, “EYE DROPS FOR TREATING DRY EYE” (LTT BIO-PHARMA CO., LTD., priority 2013, published 2019).

Assays:
[1] = system: HCE cells; experiment: MTT assay in hyperosmotic media with diclofenac, NaCl and/or PGE2 (Example 3); type: cell-based, Human; conditions: 150 mM NaCl, 24 hours
Experimental: HCE cells were incubated in hyperosmotic media containing diclofenac, 150 mM NaCl, and/or PGE2 for 24 hours. The number of viable cells was measured by MTT assay, and the absorbance data were expressed as relative values to that of the control (under isotonic conditions).
The same procedure as in Example 3 was followed, except that bromfenac was used in place of diclofenac.

[2] = system: PGE2; experiment: Amount of PGE2 induced by arachidonic acid, measured by EIA (Example 3); type: cell-based, Human; conditions: HCE cells, 30 minutes pre-incubation, 10 μM arachidonic acid
Experimental: Separately, HCE cells were pre-incubated in media containing diclofenac for 30 minutes, and then incubated in media containing 10 μM arachidonic acid and diclofenac. The arachidonic acid was added to induce PGE2. The amount of PGE2 contained in each culture was measured by EIA. The values are represented as average±S.D. (n=3), with a single asterisk (*) indicating P<0.05 and a double asterisk (**) indicating P<0.01. The same procedure as in Example 3 was followed, except that bromfenac was used in place of diclofenac.

[3] = system: HCE cells; experiment: Caspase-3-like activity under hyperosmotic conditions (Example 2); type: cell-based, Human; conditions: 150 mM NaCl, six hours of incubation
Experimental: (§1) HCE cells were incubated in hyperosmotic media containing diclofenac and 150 mM NaCl. After six hours of incubation, the caspase-3-like activity was measured using a fluorescent peptide substrate. Furthermore, after 12 hours of incubation, cell proliferation was assessed by BrdU incorporation assay, and the absorbance data were expressed as relative values to that of the control (under isotonic conditions). The values are represented as average±S.D. (n=3), with a single asterisk (*) indicating P<0.05 and a double asterisk (**) indicating P<0.01. The same procedure as in Example 2 was followed, except that bromfenac was used in place of diclofenac.

[4] = system: corneal surface disorders in the dry eye model; experiment: Rat dry eye model by lacrimal gland removal (Example 5); type: in vivo; conditions: lacrimal gland removed, ophthalmic solution 5 μl, 0.1% (3.1 mM), three times a day, fluorescein score, TUNEL
Experimental: The lacrimal gland of a rat was removed to prepare a dry eye model. One to five weeks after the lacrimal gland removal, an ophthalmic solution (5 μl) containing diclofenac (0.1%, 3.1 mM) was administered three times a day. The amount of tears was measured by the cotton thread test. Five weeks after the lacrimal gland removal, ocular tissue sections were prepared and subjected to TUNEL assay and DAPI staining. The values are represented as average±S.E.M., with a single asterisk (*) indicating P<0.01 and n.s. meaning “not significant”. The same procedure as in Example 5 was followed, except that bromfenac was used in place of diclofenac.

[5] = system: corneal surface disorders in the dry eye model; experiment: Rat dry eye model, fluorescein score after four weeks of administration (Example 10); type: in vivo; conditions: lacrimal gland removed, ophthalmic solution 5 μl, 0.05% (1.55 mM), three times a day
Experimental: The lacrimal gland of a rat was removed to prepare a dry eye model. One week after the lacrimal gland removal, an ophthalmic solution (5 μl) containing diclofenac (0.05%, 1.55 mM; or 0.1%, 3.1 mM) was administered three times a day. After four weeks from the start of the administration, the tears were subjected to fluorescein staining, and the fluorescein score was calculated. The same procedure as in Example 10 was followed, except that a buffer was used (Vehicle) in place of diclofenac.

[6] = system: NFAT5; experiment: NFAT5 expression and nuclear translocation by immunoblotting (Example 4); type: cell-based, Human; conditions: HCE cells, 150 mM NaCl, six hours or one hour
Experimental: HCE cells were incubated in hyperosmotic media containing diclofenac and 150 mM NaCl for six hours (FIG. 4A and FIG. 4C) or for one hour (FIG. 4B). Each whole cell homogenate (FIG. 4A and FIG. 4B) or nuclear extract (FIG. 4B) was analyzed by immunoblotting using an anti-NFAT5, anti-actin, or anti-lamin B antibody. The intensity of the NFAT5 band was measured and expressed as relative values to that of the control (under isotonic conditions without diclofenac) (FIG. 4A and FIG. 4B). The relative bgt1 mRNA expression level was measured by real-time RT-PCR, and the values normalized by the actin expression level are expressed as relative values to that of the control (under isotonic conditions without diclofenac) (FIG. 4C). The values are represented as average±S.D. (n=3), with a single asterisk (*) indicating P<0.05 and a double asterisk (**) indicating P<0.01. The same procedure as in Example 4 was followed, except that bromfenac was used in place of diclofenac.

[7] = system: Human corneal epithelial cells (HCE cells); experiment: MTT assay of viable cells under hyperosmotic conditions (Example 1); type: cell-based; conditions: 150 mM NaCl, 280 mM glucose or 280 mM sorbitol, compared with other NSAIDs
Experimental: Human corneal epithelial cells (HCE cells) were incubated in hyperosmotic media containing diclofenac. The hyperosmotic conditions of each medium were created by 150 mM NaCl, 280 mM glucose, or 280 mM sorbitol. The number of viable cells was measured by MTT assay, and the absorbance was calculated relative to the control (under isotonic conditions). The values are represented as average±S.D. (n=3), with a single asterisk (*) indicating P<0.05 and a double asterisk (**) indicating P<0.01.
The same procedure as in Example 1 was followed, except that other nonsteroidal anti-inflammatory drugs (NSAIDs) were used in place of diclofenac.

[8] = system: HCE cells; experiment: Cell proliferation by BrdU incorporation assay under hyperosmotic conditions (Example 2); type: cell-based, Human; conditions: 150 mM NaCl, 12 hours of incubation
Experimental: as §1

| SMILES | number of viable cells with PGE2 (MTT) ([1]; hyperosmotic media) | concentration required to reduce PGE2 [2] | inhibiting apoptosis under hyperosmotic conditions (caspase-3-like activity) [3] | concentration required to reduce cytotoxicity caused by hyperosmolarity ([1]; MTT) | effect of treating corneal surface disorders in the dry eye model [4] | corneal surface disorders in the dry eye model (fluorescein score) [5] | expression and nuclear translocation of NFAT5 [6] | reducing cytotoxicity under hyperosmotic conditions (number of viable cells, MTT) [7] | cell proliferative effect (BrdU incorporation) [8] |
| --- | --- | --- | --- | --- | --- | --- | --- | --- | --- |
| CCCCC[C@H](O)/C=C/[C@H]1[C@H](O)CC(=O)[C@@H]1C/C=C\CCCC(=O)O [PGE2, prostaglandin E2] | did not change | – | – | – | – | – | – | – | – |
| O=C(O)Cc1ccccc1Nc1c(Cl)cccc1Cl [diclofenac] | – | 0.1 nM | effective in inhibiting apoptosis under hyperosmotic conditions | 100 nM | exhibited the effect of treating corneal surface disorders | treatable | enhancing the expression and nuclear translocation of NFAT5 | highly effective in reducing cytotoxicity under hyperosmotic conditions | exhibited a cell proliferative effect |
